# In patent US12544370B2, “Methods for cancer therapy” (ASCENTAGE PHARMA (SUZHOU) CO., LTD., priority 2018, dated 2026):
# What was measured:
# [1] = system: patients with chronic phase (CP/CML-CP) or accelerated phase (AP/CML-AP) CML resistant to or intolerant of ≥2 prior TKIs or with BCR-ABL T315I; experiment: Phase 1 trial in resistant CML, further efficacy (Example 2); assay type: in vivo, human
# Excerpt: The eligible patients received continuous treatment until disease progression or unacceptable toxicity, consent withdrawal, or death. The primary efficacy endpoints were major cytogenetic response (MCyR) for CP and complete hematological response (CHR) for AP. MCyR includes partial cytogenetic response (PCyR) and complete cytogenetic response (CCyR). Blood samples were collected at various time points on Day 1-2 and Day 27-28 during cycle 1 for PK analyses.
# [2] = Phase I study, pharmacokinetics (Example 1); assay type: in vivo, human
# [3] = Table 4, AP-CML, With T315I mut., 11 evaluable
# [4] = Table 4, AP-CML, With T315I mut., 11 evaluated
# [5] = Table 4, AP-CML, Without T315I mut., 3 evaluable
# [6] = Table 4, AP-CML, Without T315I mut., 3 evaluated
# [7] = Table 4, CP-CML, With T315I mut., 48 evaluable
# [8] = Table 4, CP-CML, With T315I mut., 51 evaluated
# [9] = Table 4, CP-CML, Without T315I mut., 33 evaluable
# [10] = Table 4, CP-CML, Without T315I mut., 35 evaluated
compound,measurement,setting,value
"Cc1ccc(C(=O)Nc2ccc(CN3CCN(C)CC3)c(C(F)(F)F)c2)cc1C#Cc1cnc2[nH]ncc2c1 [compound of formula (I-A), 3-(2-(1H-pyrazolo[3,4-b]pyridin-5-yl)ethynyl)-4-methyl-N-(4-((4-methylpiperazin-1-yl)methyl)-3-(trifluoromethyl)phenyl)-benzamide]",progression free survival (PFS) rate at 18-month,[1]; AP patients (FIG. 7B),61%
same,progression free survival (PFS) rate at 18-month,[1]; CP patients (FIG. 7B),94%
same,anti-leukemic activity by dose,[1]; Example 2,potent anti-leukemic activities at doses ≥12 mg QOD
same,CHR achieved,"[1]; Example 2, 68 evaluable patients with non-CHR at baseline (CP+AP)",63 (92.6%) n (%)
same,"Complete molecular response, percent","[1]; Table 4, AP-CML, All Patients, 14 evaluated",(14.3%)
same,"Complete hematological response, percent","[1]; Table 4, AP-CML, With T315I mut., 10 evaluable",(80.0%)
same,"Complete cytogenetic response, percent",[1]; [3],(45.5%)
same,"Major cytogenetic response, percent",[1]; [3],(54.5%)
same,"Complete molecular response, percent",[1]; [4],(18.2%)
same,"Major/Complete molecular response, percent",[1]; [4],(45.5%)
same,Complete cytogenetic response,[1]; [5],0 n(%)
same,Complete hematological response,[1]; [5],3 (100.0%) n(%)
same,Major cytogenetic response,[1]; [5],0 n(%)
same,Complete molecular response,[1]; [6],0 n(%)
same,Major/Complete molecular response,[1]; [6],0 n(%)
same,"Complete molecular response, percent","[1]; Table 4, CP-CML, All Patients, 86 evaluated",(20.9%)
same,"Complete hematological response, percent","[1]; Table 4, CP-CML, With T315I mut., 33 evaluable",(97.0%)
same,"Complete cytogenetic response, percent",[1]; [7],(77.1%)
same,"Major cytogenetic response, percent",[1]; [7],(81.3%)
same,"Complete molecular response, percent",[1]; [8],(29.4%)
same,"Major/Complete molecular response, percent",[1]; [8],(52.9%)
same,"Complete hematological response, percent","[1]; Table 4, CP-CML, Without T315I mut., 22 evaluable",(90.9%)
same,"Complete cytogenetic response, percent",[1]; [9],(36.4%)
same,"Major cytogenetic response, percent",[1]; [9],(51.5%)
same,"Complete molecular response, percent",[1]; [10],(8.6%)
same,"Major/Complete molecular response, percent",[1]; [10],(14.3%)
same,time at which peak concentration was reached,"[2]; oral, 1 mg to 60 mg",2 to 8 h
same,dose proportionality of Cmax and AUC0-t,[2]; single or multiple oral dose 1 to 60 mg,approximately dose proportional increase
